Where no end group is shown, it is not given here.

The test system of the first experiment is Lgr5ECD-Fc. It is filed as binding, human. As to conditions: ratio of signal for target protein over BSA background.
On to “GCGFWWKYWFCKQDSDCLAGCVCGPNGFCG (also: bicyclic or more (positions not given here)) [Lgr5ECD-Fc EET I-II 20]”, for which the S/N was determined as 6.1.

Consider “GPTQSPGGICGGIGYSGPTVCASGTTCQVLSPEYSQCLPGAS (also: bicyclic or more (positions not given here)) [Lgr5ECD-Fc CBD 7]”, for which the S/N is listed as 34.9.

As for “GCGWWYRQWFCKQDSDCLAGCVCLETPECG (also: bicyclic or more (positions not given here)) [Lgr5ECD-Fc EET I-II 4]”, the S/N was found to be 40.2.

In the case of “GCHEGYWWRQWFCKQDSDCLAGCVCGPNGFCG (also: bicyclic or more (positions not given here)) [Lgr5ECD-Fc EET I-II 16]”, the S/N is 11.5.

As to “GCGYWWVQWFCKQDSDCLAGCVCGPNGFCD (also: bicyclic or more (positions not given here)) [Lgr5ECD-Fc EET I-II 17]”, the S/N turned out to be 10.3.

As to “GCSYWWRVWFCKQDSDCLAGCVCGPNGFCG (also: bicyclic or more (positions not given here)) [Lgr5ECD-Fc EET I-II 19]”, the S/N amounted to 7.2.

As to “GCAVYQVYCKQDSDCLAGCVCAVKFHCG (also: bicyclic or more (positions not given here)) [Lgr5ECD-Fc EET I-II 12]”, the S/N stood at 21.6.

“GCTSNFWYKQWFCKQDSDCLAGCVCGPNGFCG (also: bicyclic or more (positions not given here)) [Lgr5ECD-Fc EET I-II 5]”: the S/N came to 39.0.

“GPTQSAFGPCGGIGYSGHTVCASGTTCQVLSPNVSHCLPGAS (also: bicyclic or more (positions not given here)) [Lgr5ECD-Fc CBD 16]”: the S/N came out at 6.6.

Take “GPTQSVYGMCGGIGYSGPTVCASGTTCQVLDPTTSQCLPGAS (also: bicyclic or more (positions not given here)) [Lgr5ECD-Fc CBD 3]”: the S/N is 41.0.

On to “GPAHSTYGRCGGIDYYGPTVCASGTTCLVLWPALSWCLPRSF (also: bicyclic or more (positions not given here)) [Lgr5ECD-Fc CBD 17]”, for which the S/N was found to be 26.2.

For “GPTQSQFGMCGGIGYSGPTVCASGTTCQVLDPTTSQCLPGAS (also: bicyclic or more (positions not given here)) [Lgr5ECD-Fc CBD 4]”, the S/N came to 40.8.

Take “GCGYWYKQWFCKQDSDCLAGCVCGPNGFCG (also: bicyclic or more (positions not given here)) [Lgr5ECD-Fc EET I-II 8]”: the S/N turned out to be 32.0.

“GCGFWYMQWFCKQDSDCLAGCVCDPMGNCG (also: bicyclic or more (positions not given here)) [Lgr5ECD-Fc EET I-II 6]”: the S/N is recorded as 36.2.

Regarding “GPTQSAYGQCGGIGYSGPTVCASGTTCQVLWPQVSWCLPGAS (also: bicyclic or more (positions not given here)) [Lgr5ECD-Fc CBD 13]”, the S/N is 14.2.

Consider “GCGYWYRVWFCKQDSDCLAGCVCQEPGPCG (also: bicyclic or more (positions not given here)) [Lgr5ECD-Fc EET I-II 2]”, for which the S/N was found to be 44.3.

For “GCNRSYWFRQWFCKQDSDCLAGCVCGPNGFCG (also: bicyclic or more (positions not given here)) [Lgr5ECD-Fc EET I-II 22]”, the S/N is reported as 4.7.

Regarding “GCMNSYWYNQWFCKQDSDCLAGCVCGPNGFCG (also: bicyclic or more (positions not given here)) [Lgr5ECD-Fc EET I-II 1]”, the S/N was 47.1.

For “GCASGYWWRMWFCKQDSDCLAGCVCGPNGFCG (also: bicyclic or more (positions not given here)) [Lgr5ECD-Fc EET I-II 15]”, the S/N turned out to be 14.1.

For the compound “GCGYWWKQWFCKQDSDCLAGCVCGPNGFCG (also: bicyclic or more (positions not given here)) [Lgr5ECD-Fc EET I-II 10]”, the S/N came to 25.7.

On to “GCGYWWRLWFCKQDSDCLAGCVCGPNGSCG (also: bicyclic or more (positions not given here)) [Lgr5ECD-Fc EET I-II 14]”, for which the S/N is on record as 15.3.

“GCWVNFWMCKQDSDCLAGCVCRVLDVCG (also: bicyclic or more (positions not given here)) [Lgr5ECD-Fc EET I-II 26]”: the S/N was 11.7.

Consider “GPTQSQYGICGGIGYSGPTVCASGTTCQVLSPEFSQCLPGAS (also: bicyclic or more (positions not given here)) [Lgr5ECD-Fc CBD 14]”, for which the S/N is 12.1.

As to “GCQQGYWYWQWFCKQDSDCLAGCVCGPNGFCG (also: bicyclic or more (positions not given here)) [Lgr5ECD-Fc EET I-II 7]”, the S/N is 33.7.

Take “GPTQSTWGQCGGIGYSGPTVCASGTTCQVLWPTLSWCLPGAS (also: bicyclic or more (positions not given here)) [Lgr5ECD-Fc CBD 5]”: the S/N came to 38.3.

A further experiment concerns HtrA1. The format is binding, human.
Settings: not given
Compound `CC[C@H](C)[C@@H]1NC(=O)[C@H](CO)NC(=O)[C@@H]2CSSC[C@@H]3NC(=O)[C@H](CO)NC(=O)CNC(=O)[C@H]([C@@H](C)O)NC(=O)[C@H](CSSC[C@H](N)C(=O)N[C@@H](CCCCN)C(=O)NCC(=O)N[C@@H](CCCCN)C(=O)NCC(=O)N[C@@H](C)C(=O)N[C@@H](CCCCN)C(=O)N2)NC(=O)[C@H](CSSC[C@@H](C(=O)O)NC(=O)[C@H](CCCCN)NC(=O)CNC(=O)[C@H](CO)NC(=O)[C@H](CCCNC(=N)N)NC3=O)NC(=O)[C@H](C(C)C)NC(=O)[C@H](CCCCN)NC(=O)[C@H](Cc2c[nH]c3ccccc23)NC(=O)[C@@H]2CCCN2C(=O)[C@H](Cc2ccc(O)cc2)NC(=O)[C@H](C(C)C)NC(=O)[C@H](CO)NC(=O)[C@H](Cc2c[nH]c3ccccc23)NC(=O)[C@H](CCC(N)=O)NC1=O` [HtrA1_CnTx83] displayed a S/N of 16.1.

The same experiment, now with this note: ratio of signal for target protein over BSA background.
For the compound “AFDCLGQCGRCDFHKLQCVMMRLLARWVFKFYCNSSCTR (also: bicyclic or more (positions not given here)) [HtrA1 AVR9 52]”, the S/N is on record as 13.2.

Take “AFDCLGQCGRCDFHKLQCVRYLIKYSIMWMTYCNSSCTR (also: bicyclic or more (positions not given here)) [HtrA1 AVR9 26]”: the S/N is 15.1.

As to “GCWWMNVRTRQGCKQDSDCLAGCVCGPNGFCG (also: bicyclic or more (positions not given here)) [HtrA1 EET I-II 25]”, the S/N was 2.8.

As for “AFDCLGQCGRCDFHKLQCVWRWMHQYCNSSCTR (also: bicyclic or more (positions not given here)) [HtrA1 AVR9 2]”, the S/N came out at 22.7.

“AFDCLGQCGRCDFHKLQCVQYAYRWLMRQYCNSSCTR (also: bicyclic or more (positions not given here)) [HtrA1 AVR9 55]”: the S/N is recorded as 4.1.

“WIPCISAALGCSCKNKVCYMYYYIMGQNLMNTCGESCV (also: bicyclic or more (positions not given here)) [HtrA1 CirculinA 48]”: the S/N came to 24.1.

For the compound “GCPRILMRCKQDSDCLAGCVCWMPVLCV (also: bicyclic or more (positions not given here)) [HtrA1 EET I-II 19]”, the S/N was found to be 3.1.

For “AFDCLGQCGRCDFHKLQCVYRQFWMVKFGWQPGYCNSSCTR (also: bicyclic or more (positions not given here)) [HtrA1 AVR9 10]”, the S/N turned out to be 15.2.

In the case of “WIPCISAALGCSCKNKVCYQVWQHIFKCGESCV (also: bicyclic or more (positions not given here)) [HtrA1 CirculinA 67]”, the S/N was found to be 15.4.

In the case of “WIPCISAALGCSCKNKVCYALNNMVQFLYIHHCGESCV (also: bicyclic or more (positions not given here)) [HtrA1 CirculinA 66]”, the S/N was determined as 12.7.

Take “WIPCISAALGCSCKNKVCYFMTQHIRWFVKCGESCV (also: bicyclic or more (positions not given here)) [HtrA1 CirculinA 91]”: the S/N is recorded as 26.8.

Take “AFDCLGQCGRCDFHKLQCVVTIIRKMMLWYCNSSCTR (also: bicyclic or more (positions not given here)) [HtrA1 AVR9 31]”: the S/N worked out at 19.0.

“WIPCISAALGCSCKNKVCYILNRSCGESCV (also: bicyclic or more (positions not given here)) [HtrA1 CirculinA 40]”: the S/N stood at 8.0.

For “WIPCISAALGCSCKNKVCYVATMVVHWVCGESCV (also: bicyclic or more (positions not given here)) [HtrA1 CirculinA 34]”, the S/N is 16.8.

“GCHSVHSMCKQDSDCLAGCVCYWFYGCG (also: bicyclic or more (positions not given here)) [HtrA1 EET I-II 1]”: the S/N is given as 11.8.

Turning to “WIPCISAALGCSCKNKVCYIVILTTPCGESCV (also: bicyclic or more (positions not given here)) [HtrA1 CirculinA 73]”, the S/N was 8.4.

Take “AFDCLGQCGRCDFHKLQCVRWSIDAIIIWYCNSSCTR (also: bicyclic or more (positions not given here)) [HtrA1 AVR9 42]”: the S/N is 12.1.

As to “WIPCISAALGCSCKNKVCYYMWHVHSLICGESCV (also: bicyclic or more (positions not given here)) [HtrA1 CirculinA 36]”, the S/N was determined as 9.6.

For “AFDCLGQCGRCDFHKLQCVAWLMYSFVRPYCNSSCTR (also: bicyclic or more (positions not given here)) [HtrA1 AVR9 53]”, the S/N is listed as 7.3.

As for “GCREMLGNWVCKRFRLSSWLCLWSNGFCGT [HtrA1 EET I-II 41]”, the S/N is given as 11.8.

With “AFDCLGQCGRCDFHKLQCVKQVMATLWSMYCNSSCTR (also: bicyclic or more (positions not given here)) [HtrA1 AVR9 39]”, the S/N was found to be 9.9.

These data come from paper PMC10977697 (PLOS ONE, 2024).
